Results reported in paper PMC12463120, “Phenylalanine‐Based DNA‐Encoded Chemical Libraries for the Discovery of Potent and Selective Small Organic Ligands Against Markers of Cancer and Immune Cells” (Advanced Science, 2025).

Key:
[1] = molecular target: T1, NKG2D-Fc (Homo sapiens, UniProt P26718); test: ELISA affinity against NKG2D-Fc; format: binding; details: FITC derivatives; read-out: dissociation constant (KD) against NKG2D-Fc by ELISA
T1 construct: the extracellular domain of NKG2D was fused with an IgG Fc fragment; made in house; host or cells: CHO cells
T1 sequence (P26718 73-216 limits assumed): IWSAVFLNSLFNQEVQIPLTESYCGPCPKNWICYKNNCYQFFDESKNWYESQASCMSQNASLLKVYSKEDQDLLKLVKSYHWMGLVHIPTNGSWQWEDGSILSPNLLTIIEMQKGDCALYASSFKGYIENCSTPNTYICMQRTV
Experimental: Selection results were decoded with C++^[ [61] ^] and visualized using MATLAB R2019b (MathWorks). EFs were calculated by dividing the DNA sequence counts for each hit compound by the average DNA sequence count from the corresponding DEL screening. Additionally, Z‐score values were calculated following methods previously published,^[ [60] ^] as present in Supporting Information. Hit compounds with high EFs in the target protein selections and low EFs in the negative controls (anti‐target and streptavidin selections) were selected for hit validation activities. All compounds were synthesized using either solid‐phase peptide synthesis or solution‐phase methodologies. Affinities of fluorescein‐bearing hits were determined by FP or ELISA measurements. […] ACP3 colorimetric inhibition assay was performed with serially diluted compounds at a fixed concentration (5 mM in PBS) of para‐nitrophenyl phosphate as substrate. Binding kinetics were assessed on a Biacore X100 instrument with the target protein immobilized on a CM5 chip at 4′000 RUs. Cell binding of fluorescent ligands was evaluated using flow cytometry against antigen‐positive and antigen‐negative (wild‐type) cancer cells. in vitro tissue uptake of ^177Lu‐labelled DOTAGA PSMA‐radioligands was measured via autoradiography. […]
Grenier 384 transparent, flat-bottom well plates were used. Each test compound was measured in triplicate. […]

[2] = tested on: various unrelated proteins, including TAAs and serological proteins; test: ELISA against multiple proteins (specificity); format: binding
Experimental: 2.13 ACP3 colorimetric enzymatic assay
Grenier 384 transparent, flat-bottom well plates were used. Each test compound was measured in triplicate. 16 µL of a solution of the compound (3µM, 5% DMSO in PBS for small molecules or PBS only for DNA-conjugates, pH 7.4) was loaded into the first well row. A serial 1:2 (on DNA) or 1:3 (off DNA) dilution in DMSO/PBS (5/95, off DNA) or only PBS (on DNA) was performed in a total volume per well of 8 µL. Human recombinant ACP3 (16 µL solution, 2.5 nM in PBS, pH 7.4) was added to each well.
After 10 min of incubation, 16 µL of a solution of para-nitrophenyl phosphate (pNPP, substrate, 5 mM in PBS, pH 7.4) was added. The plate was left to develop in the dark for 16 hours. Enzymatic reaction on the substrate (phosphate group removal by ACP3) was assessed by measuring absorption at 405 vs 620 nm on a Spectra Max Paradigm multimode plate reader ([…]).
2.14 Surface plasmon resonance (SPR)
SPR measurements were performed on a Biacore X100. […]
The protein (100 μL/well, 170 nM) was incubated for 2 h at 4 °C on a StreptaWell plate (transparent 96 - well plate, Roche #11645692001). […] The absorbance was measured at 450 nm (reference level, 620–650 nm) with a Spark multimode microplate reader (Tecan Life Sciences). […]

CC(C)Oc1ccc(-c2cccc(C[C@H](NC(=O)c3ccccc3-c3ccc(C(F)(F)F)cc3)C(=O)N[C@@H](CCCCNC(=S)Nc3ccc4c(c3)C(=O)OC43c4ccc(O)cc4Oc4cc(O)ccc43)C(=O)O)c2)c(F)c1 [compound 30]
Kd [1]: 133 nM
selectivity by ELISA against multiple proteins [2]: high selectivity over various unrelated proteins
